According to PubChem BioAssay (NCI):
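Interpolation was linear, between the two tested concentrations surrounding the appropriate level; five concentrations were tested over 48 hours in 96-well plates. At the TGI there is no net growth.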

Key:
Experiment in all cases: NCI-60 cell line screen, 48 h
K-562 leukemia = test system: K-562 leukemia
CAKI-1 renal = test system: CAKI-1 renal
M19-MEL melanoma = test system: M19-MEL melanoma
MALME-3M melanoma = test system: MALME-3M melanoma
OVCAR-4 ovarian = test system: OVCAR-4 ovarian
SK-MEL-28 melanoma = test system: SK-MEL-28 melanoma
IGROV1 ovarian = test system: IGROV1 ovarian
SF-539 CNS = test system: SF-539 CNS
HCT-15 colon = test system: HCT-15 colon
DMS 273 small cell lung = test system: DMS 273 small cell lung
XF 498 CNS = test system: XF 498 CNS
LXFL 529 NSCLC = test system: LXFL 529 NSCLC
A549 NSCLC = test system: A549 NSCLC
SW-620 colon = test system: SW-620 colon
HCC-2998 colon = test system: HCC-2998 colon
HOP-62 NSCLC = test system: HOP-62 NSCLC
TK-10 renal = test system: TK-10 renal
EKVX NSCLC = test system: EKVX NSCLC
SNB-78 CNS = test system: SNB-78 CNS
SNB-19 CNS = test system: SNB-19 CNS
HL-60(TB) leukemia = test system: HL-60(TB) leukemia
UACC-257 melanoma = test system: UACC-257 melanoma
OVCAR-3 ovarian = test system: OVCAR-3 ovarian
KM12 colon = test system: KM12 colon
LOX IMVI melanoma = test system: LOX IMVI melanoma
ACHN renal = test system: ACHN renal
NCI-H522 lung = test system: NCI-H522 lung
HCT-116 colon = test system: HCT-116 colon
RXF 393 renal = test system: RXF 393 renal
NCI-H226 lung = test system: NCI-H226 lung
HT29 colon = test system: HT29 colon
MOLT-4 leukemia = test system: MOLT-4 leukemia
SNB-75 CNS = test system: SNB-75 CNS
DMS 114 small cell lung = test system: DMS 114 small cell lung
NCI-H23 lung = test system: NCI-H23 lung
OVCAR-5 ovarian = test system: OVCAR-5 ovarian
UACC-62 melanoma = test system: UACC-62 melanoma
SK-MEL-5 melanoma = test system: SK-MEL-5 melanoma
SN12C renal = test system: SN12C renal
M14 melanoma = test system: M14 melanoma
RPMI-8226 leukemia = test system: RPMI-8226 leukemia
SF-268 CNS = test system: SF-268 CNS
KM20L2 colon = test system: KM20L2 colon
SK-MEL-2 melanoma = test system: SK-MEL-2 melanoma
U251 CNS = test system: U251 CNS
CCRF-CEM leukemia = test system: CCRF-CEM leukemia
SK-OV-3 ovarian = test system: SK-OV-3 ovarian
786-0 renal = test system: 786-0 renal
HOP-92 NSCLC = test system: HOP-92 NSCLC
NCI-H460 lung = test system: NCI-H460 lung
COLO 205 colon = test system: COLO 205 colon
OVCAR-8 ovarian = test system: OVCAR-8 ovarian
A498 renal = test system: A498 renal
UO-31 renal = test system: UO-31 renal
DLD-1 colon = test system: DLD-1 colon
SF-295 CNS = test system: SF-295 CNS
SR leukemia = test system: SR leukemia
HOP-18 NSCLC = test system: HOP-18 NSCLC

CSC1C=C(C(C)C)CCC1(C)SC (stereo unspecified)
TGI (K-562 leukemia): 40.9 µM | TGI (CAKI-1 renal): 32.4 µM | TGI (M19-MEL melanoma): 31.3 µM | TGI (MALME-3M melanoma): 26.1 µM | TGI (OVCAR-4 ovarian): 33.9 µM | TGI (SK-MEL-28 melanoma): 34.2 µM | TGI (IGROV1 ovarian): 35.5 µM | TGI (SF-539 CNS): 33.6 µM | TGI (HCT-15 colon): 39.9 µM | TGI (DMS 273 small cell lung): 33 µM | TGI (XF 498 CNS): 33.8 µM | TGI (LXFL 529 NSCLC): 32.9 µM | TGI (A549 NSCLC): 78.4 µM | TGI (SW-620 colon): 38 µM | TGI (HCC-2998 colon): 30.9 µM | TGI (HOP-62 NSCLC): 35.5 µM | TGI (TK-10 renal): 41.4 µM | TGI (EKVX NSCLC): 44.7 µM | TGI (SNB-78 CNS): 32.3 µM | TGI (SNB-19 CNS): 36.9 µM | TGI (HL-60(TB) leukemia): 27.8 µM | TGI (UACC-257 melanoma): 29.4 µM | TGI (OVCAR-3 ovarian): 25.2 µM | TGI (KM12 colon): 27.7 µM | TGI (LOX IMVI melanoma): 32.5 µM | TGI (ACHN renal): 32.6 µM | TGI (NCI-H522 lung): 31.6 µM | TGI (HCT-116 colon): 37.1 µM | TGI (RXF 393 renal): 29 µM | TGI (NCI-H226 lung): 31.6 µM | TGI (HT29 colon): 29.6 µM | TGI (MOLT-4 leukemia): 40 µM | TGI (SNB-75 CNS): 31.7 µM | TGI (DMS 114 small cell lung): 30.6 µM | TGI (NCI-H23 lung): 35.7 µM | TGI (OVCAR-5 ovarian): 30.5 µM | TGI (UACC-62 melanoma): 47.6 µM | TGI (SK-MEL-5 melanoma): 31.3 µM | TGI (SN12C renal): 30.6 µM | TGI (M14 melanoma): 32 µM | TGI (RPMI-8226 leukemia): 59.4 µM | TGI (SF-268 CNS): 35.1 µM | TGI (KM20L2 colon): 56.8 µM | TGI (SK-MEL-2 melanoma): 32.8 µM | TGI (U251 CNS): 33.7 µM | TGI (CCRF-CEM leukemia): 57 µM | TGI (SK-OV-3 ovarian): 39.3 µM | TGI (786-0 renal): 31.7 µM | TGI (HOP-92 NSCLC): 31.2 µM | TGI (NCI-H460 lung): 30.9 µM | TGI (COLO 205 colon): 29.7 µM | TGI (OVCAR-8 ovarian): 35.5 µM | TGI (A498 renal): 40.4 µM | TGI (UO-31 renal): 27.4 µM | TGI (DLD-1 colon): 32.4 µM

CC1=Nn2c(nnc2-c2ccccc2Cl)NC(C)(C)C1
TGI (K-562 leukemia): > 100 µM | TGI (CAKI-1 renal): > 100 µM | TGI (M19-MEL melanoma): > 100 µM | TGI (OVCAR-4 ovarian): > 100 µM | TGI (SK-MEL-28 melanoma): > 100 µM | TGI (IGROV1 ovarian): > 100 µM | TGI (SF-539 CNS): > 100 µM | TGI (HCT-15 colon): > 100 µM | TGI (DMS 273 small cell lung): > 100 µM | TGI (XF 498 CNS): > 100 µM | TGI (LXFL 529 NSCLC): > 100 µM | TGI (SF-295 CNS): > 100 µM | TGI (A549 NSCLC): > 100 µM | TGI (SR leukemia): 74.4 µM | TGI (SW-620 colon): 35.8 µM | TGI (HCC-2998 colon): > 100 µM | TGI (HOP-62 NSCLC): > 100 µM | TGI (TK-10 renal): > 100 µM | TGI (EKVX NSCLC): > 100 µM | TGI (SNB-78 CNS): > 100 µM | TGI (SNB-19 CNS): > 100 µM | TGI (HL-60(TB) leukemia): > 100 µM | TGI (KM12 colon): > 100 µM | TGI (LOX IMVI melanoma): > 100 µM | TGI (ACHN renal): > 100 µM | TGI (NCI-H522 lung): > 100 µM | TGI (HCT-116 colon): > 100 µM | TGI (NCI-H226 lung): > 100 µM | TGI (HT29 colon): > 100 µM | TGI (MOLT-4 leukemia): > 100 µM | TGI (SNB-75 CNS): > 100 µM | TGI (NCI-H23 lung): > 100 µM | TGI (OVCAR-5 ovarian): > 100 µM | TGI (UACC-62 melanoma): > 100 µM | TGI (SK-MEL-5 melanoma): > 100 µM | TGI (SN12C renal): > 100 µM | TGI (M14 melanoma): > 100 µM | TGI (RPMI-8226 leukemia): 54.3 µM | TGI (SF-268 CNS): > 100 µM | TGI (KM20L2 colon): > 100 µM | TGI (SK-MEL-2 melanoma): > 100 µM | TGI (U251 CNS): > 100 µM | TGI (CCRF-CEM leukemia): > 100 µM | TGI (SK-OV-3 ovarian): > 100 µM | TGI (786-0 renal): > 100 µM | TGI (HOP-92 NSCLC): > 100 µM | TGI (NCI-H460 lung): > 100 µM | TGI (COLO 205 colon): > 100 µM | TGI (OVCAR-8 ovarian): > 100 µM | TGI (UO-31 renal): > 100 µM | TGI (DLD-1 colon): > 100 µM

CN(C)CC/C(=N\Nc1c(F)c(F)c(F)c(F)c1F)c1ccccc1
TGI (K-562 leukemia): > 100 µM | TGI (HOP-18 NSCLC): > 100 µM | TGI (M19-MEL melanoma): > 100 µM | TGI (MALME-3M melanoma): > 100 µM | TGI (OVCAR-4 ovarian): > 100 µM | TGI (SK-MEL-28 melanoma): > 100 µM | TGI (IGROV1 ovarian): > 100 µM | TGI (SF-539 CNS): > 100 µM | TGI (HCT-15 colon): > 100 µM | TGI (DMS 273 small cell lung): > 100 µM | TGI (LXFL 529 NSCLC): > 100 µM | TGI (SF-295 CNS): > 100 µM | TGI (A549 NSCLC): > 100 µM | TGI (SR leukemia): 47.9 µM | TGI (SW-620 colon): > 100 µM | TGI (TK-10 renal): > 100 µM | TGI (EKVX NSCLC): > 100 µM | TGI (SNB-78 CNS): > 100 µM | TGI (SNB-19 CNS): > 100 µM | TGI (HL-60(TB) leukemia): 28.2 µM | TGI (UACC-257 melanoma): 80.6 µM | TGI (KM12 colon): > 100 µM | TGI (LOX IMVI melanoma): > 100 µM | TGI (ACHN renal): > 100 µM | TGI (NCI-H522 lung): > 100 µM | TGI (HCT-116 colon): > 100 µM | TGI (RXF 393 renal): > 100 µM | TGI (HT29 colon): > 100 µM | TGI (MOLT-4 leukemia): > 100 µM | TGI (SNB-75 CNS): 13.1 µM | TGI (DMS 114 small cell lung): 79.2 µM | TGI (NCI-H23 lung): > 100 µM | TGI (OVCAR-5 ovarian): > 100 µM | TGI (UACC-62 melanoma): > 100 µM | TGI (SK-MEL-5 melanoma): 28 µM | TGI (SN12C renal): > 100 µM | TGI (RPMI-8226 leukemia): 70.5 µM | TGI (SF-268 CNS): > 100 µM | TGI (KM20L2 colon): > 100 µM | TGI (SK-MEL-2 melanoma): > 100 µM | TGI (U251 CNS): > 100 µM | TGI (CCRF-CEM leukemia): 95.5 µM | TGI (SK-OV-3 ovarian): > 100 µM | TGI (786-0 renal): > 100 µM | TGI (NCI-H460 lung): > 100 µM | TGI (COLO 205 colon): > 100 µM | TGI (OVCAR-8 ovarian): > 100 µM | TGI (A498 renal): > 100 µM | TGI (UO-31 renal): 63.4 µM | TGI (DLD-1 colon): > 100 µM
